Patent US20110028758A1, “Trans-cinnamic acid derivative, its preparation mathod and the use” (priority 2007, published 2011)

Columns and labels:
[1] = tested on: mice ascites hepatoma cell strain H22; test: Anti-tumor test in vivo, mice transplanted tumor of liver cancer H22; set-up: species or system Kunming mice
Description: The mice ascites hepatoma cell strain H22 is purchased from the Experimental Center of Zhongshan University.
Recovery the mice ascites hepatoma cell strain H22, put the cell suspension liquid into a centrifugal tube and use the 4° C. saline to wash the suspension liquid twice, then centrifuge to discard the supernatant, add appropriate 4° C. saline to dilute the suspension liquid, count cells with 0.2% trypan blue, adjust the density to 10^7 cell/ml, according to 0.2 (ml/mice) intraperitoneal inoculation H22 cell suspension liquid.
After ten days of the intraperitoneal inoculation, the cervical vertebra is dislocated. Disinfect the mice abdominal skin, and suck the milky ascites with a sterile syringe, then adjust the concentration of tumor cells to 1×10^7 cell/ml with injection used saline. Disinfect the right armpit skin of the Kunming mice with alcohol swab, subcutaneously vaccinate the cell suspension liquid 0.2 ml, conventional feeding. […] Totally there are 180 tumor-bearing mice.
(§1) The 180 tumor-bearing mice are divided into 18 groups by the weigh of the mice, wherein each group has 10 mice (half male and half female). The drug delivery methods of each group are shown in Table 3 to illustrate eighteen groups of mice drug delivery situation.
Group 1 is the model group, and the mice of group 1 are given the tail vein saline injection daily started on the second day of the tumor-bearing for 10 days.
(§2) Group 2 is the cyclophosphamide (CTX) group, and the mice of group 2 are only given the cyclophosphamide in the intraperitoneal of the mice on the second day of the tumor-bearing.
(§3) Group 3 to 18 groups are given the four compounds respectively, wherein the groups delivered 25 mg/kg drug are tail vein low-dose group, wherein the groups delivered 50 mg/kg drugs are the tail vein medium-dose group, wherein the groups delivered 100 mg/kg drugs are the tail vein high-dose group, wherein the groups delivered 200 mg/kg drugs are the oral enteral group. These mice from group 3 to 18 start the drug delivery on the second day of the tumor-bearing, and delivered once a day for 10 sequent days.
The above drug deliveries are 20 ml/kg.
After finishing the drug delivery process, weight the mice, then kill the mice by pulling off the neck, and anatomy to get the tumor tissue of the mice on the next day of finishing the drug delivery process, and then weight the anatomized tumor by electronic weighing scales to calculate the inhibition rate.

[2] = Description: as §1, §2, §3
After the drug delivery, weight the mice weight, then execute the mice, and then weight the spleen and thymus weight by electronic weighting scale respectively. The spleen index and thymus index are the weight (mg) of mice spleen, thymus of each group/mice weight (g).

[3] = i.g. 200 mg·(kg·d)^−1, once a day for 10 days
[4] = i.v. 25 mg·(kg·d)^−1, once a day for 10 days
[5] = i.v. 25 mg·(kg·d)^−1, once a day for 10 days (low-dose group)
[6] = i.v. 50 mg·(kg·d)^−1, once a day for 10 days
[7] = i.v. 50 mg·(kg·d)^−1, once a day for 10 days (medium-dose group)
[8] = i.v. 100 mg·(kg·d)^−1, once a day for 10 days

## COc1ccc(/C=C/C(=O)O)c(O)c1CC=C(C)C [I-a, (E)-2-hydroxy-4-methoxy-3-isopentenyl-cinnamic acid]
[1]; [3]
  Tumor weight/g: 0.907 ± 0.424 g
[1]; [4]
  Tumor weight/g: 1.398 ± 0.355 g
[1]; [5]
  IR/% (inhibition rate): 8.8%
[1]; [6]
  Tumor weight/g: 1.047 ± 0.342 g
[1]; [7]
  IR/% (inhibition rate): 31.7%
[1]; [8]
  Tumor weight/g: 0.775 ± 0.381 g
[2]; high-dose group, tail vein 100 mg/kg, 10 days
  death during drug delivery: does not have any death
[2]; mouse, in vivo
  splenomegaly of the tumor-bearing mice: no affect

## COc1ccc(/C=C\C(=O)O)c(OC)c1CC=C(C)C [I-b, (Z)-2,4-dimethoxy-3-isopentenyl-cinnamic acid]
[1]; [3]
  Tumor weight/g: 1.108 ± 0.364 g
[1]; [4]
  Tumor weight/g: 1.367 ± 0.524 g
[1]; [5]
  IR/% (inhibition rate): 10.8%
[1]; [6]
  Tumor weight/g: 1.152 ± 0.47 g
[1]; [7]
  IR/% (inhibition rate): 24.8%
[1]; [8]
  Tumor weight/g: 0.911 ± 0.417 g

## COc1ccc(/C=C/C(=O)O)c(OC)c1CC=C(C)C [I-c, (E)-2,4-dimethoxy-3-isopentenyl-cinnamic acid]
[1]; [3]
  Tumor weight/g: 0.866 ± 0.489 g
[1]; [4]
  Tumor weight/g: 1.322 ± 0.278 g
[1]; [5]
  IR/% (inhibition rate): 13.7%
[1]; [6]
  Tumor weight/g: 0.875 ± 0.379 g
[1]; [8]
  Tumor weight/g: 0.782 ± 0.368 g
[2]; mouse, in vivo
  effect near the tail vein of the mice and its surrounding tissue: irritation or corrosive
  splenomegaly of the tumor-bearing mice: can cause the splenomegaly
